Results from patent US8507683B2, “Compounds for the treatment of hepatitis C” (Bristol-Myers Squibb Company, priority 2010, dated 2013).

Assays:
[1] = target: HCV NS5B RdRp genotype 1b (Hepatitis C virus genotype 1b (isolate Con1) (HCV), UniProt Q9WMX2); experiment: HCV NS5B RdRp enzyme assay; type: biochemical
Method: HCV NS5B RdRp Cloning, Expression, and Purification. The cDNA encoding the NS5B protein of HCV, genotype 1b, was cloned into the pET21a expression vector. The protein was expressed with an 18 amino acid C-terminal truncation to enhance the solubility. The E. coli competent cell line BL21(DE3) was used for expression of the protein. Cultures were grown at 37° C. for ˜4 hours until the cultures reached an optical density of 2.0 at 600 nm. The cultures were cooled to 20° C. and induced with 1 mM IPTG. Fresh ampicillin was added to a final concentration of 50 μg/mL and the cells were grown overnight at 20° C.
Cell pellets (3 L) were lysed for purification to yield 15-24 mgs of purified NS5B. The lysis buffer consisted of 20 mM Tris-HCl, pH 7.4, 500 mM NaCl, 0.5% triton X-100, 1 mM DTT, 1 mM EDTA, 20% glycerol, 0.5 mg/ml lysozyme, 10 mM MgCl2, 15 ug/ml deoxyribonuclease I, and Complete TM protease inhibitor tablets (Roche). After addition of the lysis buffer, frozen cell pellets were resuspended using a tissue homogenizer. To reduce the viscosity of the sample, aliquots of the lysate were sonicated on ice using a microtip attached to a Branson sonicator. The sonicated lysate was centrifuged at 100,000×g for 30 minutes at 4° C. and filtered through a 0.2 μm filter unit (Corning).
The protein was purified using two sequential chromatography steps: Heparin sepharose CL-6B and polyU sepharose 4B. The chromatography buffers were identical to the lysis buffer but contained no lysozyme, deoxyribonuclease I, MgCl2 or protease inhibitor and the NaCl concentration of the buffer was adjusted according to the requirements for charging the protein onto the column. Each column was eluted with a NaCl gradient which varied in length from 5-50 column volumes depending on the column type. After the final chromatography step, the resulting purity of the enzyme is >90% based on SDS-PAGE analysis. The enzyme was aliquoted and stored at −80° C.
Standard HCV NS5B RdRp Enzyme Assay. HCV RdRp genotype 1b assays were run in a final volume of 60 μl in 96 well plates (Costar 3912) . The assay buffer is composed of 20 mM Hepes, pH 7.5, 2.5 mM KCl, 2.5 mM MgCl2, 1 mM DTT, 1.6 U RNAse inhibitor (Promega N2515), 0.1 mg/ml BSA (Promega R3961), and 2% glycerol. All compounds were serially diluted (3-fold) in DMSO and diluted further in water such that the final concentration of DMSO in the assay was 2%. HCV RdRp genotype 1b enzyme was used at a final concentration of 28 nM. A polyA template was used at 6 nM, and a biotinylated oligo-dT12 primer was used at 180 nM final concentration. Template was obtained commercially (Amersham 27-4110). Biotinylated primer was prepared by Sigma Genosys. ^3H-UTP was used at 0.6 μCi (0.29 μM total UTP). Reactions were initiated by the addition of enzyme, incubated at 30° C. for 60 min, and stopped by adding 25 μL of 50 mM EDTA containing SPA beads (4 μg/μL, Amersham RPNQ 0007). Plates were read on a Packard Top Count NXT after >1 hr incubation at room temperature.
Modified HCV NS5B RdRp Enzyme Assay. An on-bead solid phase homogeneous assay was also used to assess NS5B inhibitors (WangY-K, Rigat K, Roberts S, and Gao M (2006) Anal Biochem, 359: 106-111). The assay is a modification of the standard assay described above and was used in a 96-well or a 384-well format. […]

[2] = system: genotype 1b HCV replicon in Huh-7 cells; experiment: HCV replicon luciferase assay, genotype 1b; type: cell-based; conditions: Hepatitis C virus, 1b genotype replicon
Method: (§1) Cell Lines. The cell lines used to evaluate compounds consist of a human hepatocyte derived cell line (Huh-7) that constitutively expresses a genotype 1a or 1b HCV replicon containing a Renilla luciferase reporter gene. These cells were maintained in Dulbecco's modified Eagle medium (DMEM) containing 10% FBS, 100 U/mL penicillin/streptomycin and 1.0 mg/mL G418.
(§2) HCV Replicon Luciferase Assay. To evaluate compound efficacy, HCV replicon cells were seeded in 96-well plates in DMEM containing 10% FBS at a cell density of 10^4/well. Following incubation at 37° C. overnight, compounds serially diluted in DMSO were added to the cell plates. Alternatively, titrated compounds were transferred to sterile 384-well tissue-culture treated plates and the plates seeded with 50 μL of cells at a density of 2.4×10^3 cells/well in DMEM containing 4% FCS (final DMSO concentration at 0.5%). After 3 days incubation at 37° C., cells were analyzed for Renilla Luciferase activity using the EnduRen substrate (Promega cat #E6485) according to the manufacturer's directions. Briefly, the EnduRen substrate was diluted in DMEM and then added to the plates to a final concentration of 7.5 μM. The plates were incubated for at least 1 h at 37° C. then read on a TopCount NXT Microplate Scintillation and Luminescence Counter (Packard) or Viewlux Imager (PerkinElmer) using a luminescence program. The 50% effective concentration (EC50) was calculated using the exponential form of the median effect equation where EC50=100−[(δFinh/δFcon)×100].

HCV = conditions: cited from earlier work
[3] = system: genotype 1a HCV replicon in Huh-7 cells; experiment: HCV replicon luciferase assay, genotype 1a; type: cell-based; conditions: Hepatitis C virus, 1a genotype used for replicon data
Method: as §1
as §2, with “The 50% effective concentration (EC50) was calculated using the exponential form of the median effect equation where EC50=100−[(δFinh/δFcon)×100].” left out

HCV NS5B RdRp genotype 1b, sequence (Q9WMX2 2420-2992): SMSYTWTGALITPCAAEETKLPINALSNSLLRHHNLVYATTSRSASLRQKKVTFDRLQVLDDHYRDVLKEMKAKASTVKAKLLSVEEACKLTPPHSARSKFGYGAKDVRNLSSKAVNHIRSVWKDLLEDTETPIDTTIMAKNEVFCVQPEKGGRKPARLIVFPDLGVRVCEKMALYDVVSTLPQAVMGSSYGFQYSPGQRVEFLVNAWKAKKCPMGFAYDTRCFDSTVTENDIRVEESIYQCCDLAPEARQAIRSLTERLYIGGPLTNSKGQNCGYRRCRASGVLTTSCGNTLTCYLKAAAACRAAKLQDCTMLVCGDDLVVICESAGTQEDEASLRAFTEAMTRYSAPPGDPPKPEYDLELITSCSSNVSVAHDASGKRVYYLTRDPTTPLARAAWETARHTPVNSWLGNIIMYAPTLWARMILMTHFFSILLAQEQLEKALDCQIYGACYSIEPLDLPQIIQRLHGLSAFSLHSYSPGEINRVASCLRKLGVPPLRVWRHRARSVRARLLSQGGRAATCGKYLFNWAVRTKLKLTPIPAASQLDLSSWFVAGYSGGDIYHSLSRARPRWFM

With `CNC(=O)c1c(-c2ccc(F)cc2)oc2ccc(-c3cc(C(=O)NC4(c5ncccn5)COC4)c(OC)cc3C)c(F)c12` [4-fluoro-2-(4-fluorophenyl)-5-(4-methoxy-2-methyl-5-(3-(pyrimidin-2-yl)oxetan-3-ylcarbamoyl)phenyl)-N-methylbenzofuran-3-carboxamide] the IC50 [1] was 22 nM and the EC50 [2] was 12 nM.
In the case of `CNC(=O)c1c(-c2ccc(F)cc2)oc2ccc(-c3cc(C(=O)NC4(c5ncccn5)COC4)cc(F)c3C)c(F)c12` [4-fluoro-5-(3-fluoro-2-methyl-5-(3-(pyrimidin-2-yl)oxetan-3-ylcarbamoyl)phenyl)-2-(4-fluorophenyl)-N-methylbenzofuran-3-carboxamide], the IC50 [1] is reported as 6 nM and the EC50 [2] is reported as 12 nM.
Work on `CNC(=O)c1c(-c2ccc(F)cc2)oc2ccc(-c3cc(C(=O)NC4(c5ccccc5)COC4)ccc3C)c(F)c12` yielded an IC50 [1] of 57 nM and an EC50 [2] of 4 nM.
For `CNC(=O)c1c(-c2ccc(F)cc2)oc2cc(N(CCO)S(C)(=O)=O)c(C3CC3)cc12` [HCV-796], the hepatic toxicity (HCV; extended dosing of the combination regimens with interferon and ribavirin) is given as “hepatic toxicity observed” and the “HCV RNA levels in patients” value (HCV; patients, single agent) is given as “showed an ability to reduce HCV RNA levels in patients”.
`CNC(=O)c1c(-c2ccc(F)cc2)oc2ccc(-c3cc(C(=O)NC4(c5ccccn5)COC4)cc(F)c3C)c(F)c12` [4-fluoro-5-(3-fluoro-2-methyl-5-(3-(pyridin-2-yl)oxetan-3-ylcarbamoyl)phenyl)-2-(4-fluorophenyl)-N-methylbenzofuran-3-carboxamide] gave an IC50 [1] of 16 nM and an EC50 [2] of 6 nM.
Work on `CNC(=O)c1c(-c2ccc(F)cc2)oc2ccc(-c3cc(C(=O)NC4(c5ccccn5)COC4)c(OC)cc3C)c(F)c12` yielded an IC50 [1] of 17 nM and an EC50 [2] of 8 nM.
`CNC(=O)c1c(-c2ccc(F)cc2)oc2ccc(-c3cc(C(=O)NC4(c5ccccn5)COC4)ccc3C)c(F)c12` [4-fluoro-2-(4-fluorophenyl)-N-methyl-5-(2-methyl-5-(3-(pyridin-2-yl)oxetan-3-ylcarbamoyl)phenyl)benzofuran-3-carboxamide] showed an IC50 [1] of 24 nM and an EC50 [3] of 24 nM.
`CNC(=O)c1c(-c2ccc(F)cc2)oc2ccc(-c3cc(C(=O)NC4(c5ncccn5)COC4)ccc3C)c(F)c12` [4-fluoro-2-(4-fluorophenyl)-N-methyl-5-(2-methyl-5-(3-(pyrimidin-2-yl)oxetan-3-ylcarbamoyl)phenyl)benzofuran-3-carboxamide] gave an IC50 [1] of 10 nM and an EC50 [2] of 15 nM.
